From ChEMBL document CHEMBL1125706, “An approach to the design of receptor-type-selective non-peptide antagonists of peptidergic receptors: delta opioid antagonists” (J Med Chem, 1991)
pKi: −log10 of the molar value. Non-standard residues stand in square brackets, D forms with d. Residues, ends and D or L forms follow the SMILES beside them. *: point of attachment. Tyr(Nα,Nα-allyl2) = C=CCN(CC=C)[C@@H](Cc1ccc(O)cc1)C(=O)*; Aib = CC(C)(N)C(=O)O

Tests used:
[1] = biological target: T1, Opioid receptors; delta & kappa (Homo sapiens) (UniProt P41145+P41143); assay: Ke selectivity ratio (kappa/delta) of the compound; format: protein assay
[2] = biological target: T2, Opioid receptors; mu & delta (Homo sapiens) (UniProt P41143+P35372); assay: Ke selectivity ratio (mu/delta) of the compound; format: protein assay
[3] = biological target: T2, Opioid receptors; mu & delta (Homo sapiens); assay: Ki selectivity ratio (mu/delta) of the compound; format: protein assay
[4] = biological target: T1, Opioid receptors; delta & kappa (Homo sapiens); assay: Ki selectivity ratio (kappa/delta) of the compound; format: protein assay
[5] = biological target: Kappa-type opioid receptor (Cavia porcellus, UniProt P41144); assay: Compound was evaluated for binding affinity of Opioid receptor kappa 1 in guinea pig brain membranes; format: cell membranes, Membrane
[6] = biological target: Delta-type opioid receptor (Mus musculus) (UniProt P32300); assay: Compound was evaluated for antagonist potency in the mouse vas deferens preparation using [D-Ala2,D-Leu5]enkephalin (Opioid receptor delta 1); format: functional
Sequence of Delta-type opioid receptor (Mus musculus) (P32300 whole entry): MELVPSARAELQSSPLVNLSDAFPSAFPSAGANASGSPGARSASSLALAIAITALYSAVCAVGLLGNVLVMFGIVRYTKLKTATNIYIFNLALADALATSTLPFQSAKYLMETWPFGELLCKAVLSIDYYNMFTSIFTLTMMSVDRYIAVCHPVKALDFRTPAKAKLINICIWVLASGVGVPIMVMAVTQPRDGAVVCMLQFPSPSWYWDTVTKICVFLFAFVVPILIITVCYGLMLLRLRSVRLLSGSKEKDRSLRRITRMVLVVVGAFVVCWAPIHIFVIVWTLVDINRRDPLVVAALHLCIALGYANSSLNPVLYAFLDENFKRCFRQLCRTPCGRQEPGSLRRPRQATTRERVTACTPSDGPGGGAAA

T1 sequence (P41143 whole entry, looked up): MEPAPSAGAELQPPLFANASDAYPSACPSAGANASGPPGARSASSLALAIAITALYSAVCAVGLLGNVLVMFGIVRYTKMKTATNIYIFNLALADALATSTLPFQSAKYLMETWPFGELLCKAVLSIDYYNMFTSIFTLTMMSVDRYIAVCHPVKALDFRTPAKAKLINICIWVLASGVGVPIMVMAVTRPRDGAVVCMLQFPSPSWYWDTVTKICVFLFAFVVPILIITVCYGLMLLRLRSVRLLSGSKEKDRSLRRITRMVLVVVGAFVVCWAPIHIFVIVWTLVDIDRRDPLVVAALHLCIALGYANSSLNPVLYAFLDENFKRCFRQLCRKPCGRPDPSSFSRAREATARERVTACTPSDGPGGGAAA
T1 sequence (P41145 whole entry, looked up): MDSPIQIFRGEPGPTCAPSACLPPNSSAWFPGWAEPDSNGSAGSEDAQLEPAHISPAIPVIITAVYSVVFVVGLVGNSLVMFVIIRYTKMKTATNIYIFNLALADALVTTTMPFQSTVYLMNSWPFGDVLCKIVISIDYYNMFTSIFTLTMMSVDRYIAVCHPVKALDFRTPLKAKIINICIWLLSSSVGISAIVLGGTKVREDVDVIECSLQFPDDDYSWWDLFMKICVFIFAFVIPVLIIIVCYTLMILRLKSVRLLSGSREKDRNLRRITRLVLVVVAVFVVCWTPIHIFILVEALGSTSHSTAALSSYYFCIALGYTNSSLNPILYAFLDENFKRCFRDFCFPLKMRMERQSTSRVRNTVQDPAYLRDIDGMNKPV
T2 sequence (P35372 whole entry, looked up): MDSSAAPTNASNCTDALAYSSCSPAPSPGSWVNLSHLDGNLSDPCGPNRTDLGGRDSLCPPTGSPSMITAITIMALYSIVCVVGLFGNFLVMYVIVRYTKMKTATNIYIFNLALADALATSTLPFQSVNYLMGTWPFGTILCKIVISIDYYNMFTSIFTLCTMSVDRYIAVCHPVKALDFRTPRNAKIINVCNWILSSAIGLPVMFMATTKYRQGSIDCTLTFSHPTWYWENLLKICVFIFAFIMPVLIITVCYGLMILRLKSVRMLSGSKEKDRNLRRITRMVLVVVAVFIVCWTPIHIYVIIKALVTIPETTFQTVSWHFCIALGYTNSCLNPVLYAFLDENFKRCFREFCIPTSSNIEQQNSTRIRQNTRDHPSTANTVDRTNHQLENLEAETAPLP
T2 sequence (P41143 whole entry, looked up): as the sequence (P41143 whole entry, looked up) above
Sequence of Kappa-type opioid receptor (P41144 whole entry): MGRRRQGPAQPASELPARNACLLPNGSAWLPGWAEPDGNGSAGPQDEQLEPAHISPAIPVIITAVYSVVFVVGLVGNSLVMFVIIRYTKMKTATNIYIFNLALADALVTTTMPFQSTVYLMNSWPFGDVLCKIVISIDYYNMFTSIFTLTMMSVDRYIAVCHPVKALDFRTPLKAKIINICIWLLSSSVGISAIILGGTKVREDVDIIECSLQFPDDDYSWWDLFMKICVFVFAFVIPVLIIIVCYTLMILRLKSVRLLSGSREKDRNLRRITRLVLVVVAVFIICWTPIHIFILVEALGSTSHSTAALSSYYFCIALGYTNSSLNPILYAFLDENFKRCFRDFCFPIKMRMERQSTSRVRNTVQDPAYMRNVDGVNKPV

For `C=CCN(CC=C)[C@@H](Cc1ccc(O)cc1)C(=O)NC(C)(C)C(=O)NC(C)(C)C(=O)N[C@@H](Cc1ccccc1)C(=O)N[C@@H](CC(C)C)C(=O)O` ({Tyr(Nα,Nα-allyl2)}-[Aib][Aib]FL-OH), the Selectivity ratio [1] was over 18, the Selectivity ratio [2] was over 24 and the Selectivity ratio [3] was over 29. The Selectivity ratio [4] was over 29.
`Oc1ccc2c3c1O[C@H]1c4oc5ccccc5c4C[C@@]4(O)[C@@H](C2)N(CC2CC2)CC[C@]314` [NALTRIBEN] was tested, and the pKi [5] was 6.82 and the Ke [6] was 0.27 nM.
